Columns and labels:
[1] = system: peripheral blood-derived ASCs; assay: short-term in vitro effects of TPC on peripheral blood-derived ASCs (ELISPOT); type: cell-based; settings: 50 ug/mL TPC (410S), 2 hours at 37° C., heparinized peripheral blood from a normal donor
Protocol: To each well of the first 10 columns of a sterile hydrazine modified polystyrene 96-well plate (Corning Costar, Cambridge, Mass.), 100 μL per well of a solution containing 3.2 mg/mL αGal(1,3)Gal β 1-4 GlcNAc, 3.1 mg/mL EDC and 2.4 mg/mL NHS were added in a darkened cold room and the reaction proceeded for four hours. After careful washing with sterile H2O, the plates were completely covered with plastic strips and stored at 4° C. until use. Plates were blocked with sterile 400 ul/well of PBS/1% HSA for 2 hours at 37° C. Peripheral blood mononuclear cells were isolated by Ficoll-Hypaque (specific gravity, 1.077 g/mL; Pharmacia Fine Chemicals, Piscatawy, N.J.) density gradients at 400 g for 30 min. at 22° C. […] Plates were incubated overnight in the dark at room temperature and single Ab-secreting, spot forming cells (ASC) were visualized, analyzed and counted under low magnification using an inverted phase microscope. Data represents total isotype specific anti-gal Ab-secreting cells/10^6 PBMNCs, calculated from serially diluted cell samples.
short-term in vitro effects of TPC on peripheral blood-derived ASCs were assessed by incubating (2 hours at 37° C., with rotation at 6 rpm) heparinized peripheral blood from a normal donor in the presence or absence of 50 ug/mL TPC (410S). […]

xenoreactive antibodies = assay: TPC treatment with discordant xenotransplant (pig heart) in cynomolgous monkeys; type: in vivo
Protocol: The TPC molecule 410S was prepared as described above in Example 5. Three monkeys received 250 mg TPC (# 19-97, 18-97, 21-97), and two monkeys received 250 mg control vehicle (#28-97, 23-97) every 3 days for 2 weeks (total 6 doses/animal) via IV infusion. 250 mg/5 mL per vial was supplied as sterile solution to be injected into 50 ML sterile physiological saline in an IV bag and administered IV at a rate of approximately 2-3 mLs/min. Prior to administration and 15-60 minutes after administration was complete, 1-3 mLs of blood was drawn for serum from each monkey at a site distant from the site of administration. On the day of the 6th dose, each monkey underwent a heterotopic heart transplant following drug infusion. A heart from a transgenic pig which expresses human CD59 and human CD55 was placed in the abdominal position as described (Byrne, et al., 1997, Transplantation 63:149-155) and remained in place up to 6 hours before being explanted.
Following the transplant and explant, the monkeys continued infusion of either TPC or control vehicle, as above, once per day for 9 days. Blood was drawn for serum analysis before and after each administration. The monkeys were monitored for at least 15 days after cessation of TPC administration, and blood was drawn 2 times per week for serum analysis. One monkey died 2 days post-transplant.

[2] = system: circulating anti-Gal ASC (IgM and IgG); assay: in vivo effects of TPC administration on circulating anti-Gal ASC (ELISPOT); set-up: species or system cynomologous monkeys
Protocol: To each well of the first 10 columns of a sterile hydrazine modified polystyrene 96-well plate (Corning Costar, Cambridge, Mass.), 100 μL per well of a solution containing 3.2 mg/mL αGal(1,3)Gal β 1-4 GlcNAc, 3.1 mg/mL EDC and 2.4 mg/mL NHS were added in a darkened cold room and the reaction proceeded for four hours. After careful washing with sterile H2O, the plates were completely covered with plastic strips and stored at 4° C. until use. Plates were blocked with sterile 400 ul/well of PBS/1% HSA for 2 hours at 37° C. Peripheral blood mononuclear cells were isolated by Ficoll-Hypaque (specific gravity, 1.077 g/mL; Pharmacia Fine Chemicals, Piscatawy, N.J.) density gradients at 400 g for 30 min. at 22° C. Low density mononuclear cells at the interfaces were harvested, washed twice by centrifugation (400 g for 10 min.) and resuspended in serum-free complete culture medium consisting of RPMI 1640 (GIBCO, Grand Island, N.Y.) supplemented with 1% HSA, 2 mM L-glutamine, and 100 U/mL penicillin/100 ug/mL streptomycin (GIBCO, Grand Island, N.Y.). Manual hemacytometer cell counts and viability determinations were performed using trypan blue exclusion dye. Thereafter, serial dilutions of PBMNCs (starting at 5×10^5 cells) in 100 ul of serum-free complete culture medium were added to each well and incubated for 18-24 hours at 37° C. in 5% CO2. After washing 8 times using PBS/0.1% Tween-20, the plates were incubated with biotinylated isotype specific goat anti-human Abs (biotin goat anti-human IgM Cat#62-7540; biotin goat anti-human IgG (H&L) Cat# 62-7140, Zymed, San Francisco, Calif.)(1:1000) at 37° C. for 4 hours. After washing, streptavidin conjugated alkaline phosphatase (Cat# 43-4322, Zymed, San Francisco, Calif.) (1:1000) was added for 30 min. at 37° C. Finally, after washing an additional 8 times with PBS/0.1% Tween-20, 5-Bromo-4-chloro-3indolyl-phosphate (Cat# B-8503, Sigma, St. Louis, Mo.) dissolved in 1% low-melt sea-plaque agarose (FMC Bioproducts, Cat#50101) was added as gel substrate to each well. Plates were incubated overnight in the dark at room temperature and single Ab-secreting, spot forming cells (ASC) were visualized, analyzed and counted under low magnification using an inverted phase microscope. Data represents total isotype specific anti-gal Ab-secreting cells/10^6 PBMNCs, calculated from serially diluted cell samples.
To investigate the in vivo response of circulating anti-Gal ASC to TPC administration, we measured the number of ASC per 10^6 peripheral blood mononuclear cells isolated from cynomologous monkeys treated with either TPC (410S) or blocked-PEG as control. Blocked PEG is a 4-arm, 10,000 MW PEG-amine that was reacted with acetic anhydride in order to block the amine-groups of the PEG. Briefly, heparinized peripheral blood samples (2-3 mL) from TPC and PEG treated monkeys were obtained prior to experimentation, after 6 dosages of TPC, 7 days following porcine heart transplantation with daily infusions, 7 days post infusion termination, and 18 days post infusion. Mononuclear cells were isolated via Ficoll-Hypaque gradient centrifugation and assayed for anti-Gal IgM and IgG ASC using the ELISPOT assay as described in Example 15. […] In contrast, the number of IgG ASC in the PEG treated animal increased 14.9-fold with no detectable change in the number of IgM ASC. Seven days after the termination of TPC treatment, 14 days post transplantation, circulating IgG and IgM ASC were 27-84% and 1.3-9.8% of baseline values, respectively. In the PEG treated monkey, IgG ASC were 4.4 above baseline and IgM ASC levels reduced 51%.

[3] = day 7 post transplantation (porcine transgenic heart), daily TPC
[4] = seven days after termination of TPC treatment, 14 days post transplantation

## (αGal(1,3)Gal β 1-4 GlcNAc)4-PEG [Example 410S]
[1]
  effect on the number of detectable ASCs: no effect
  effect on total cell yield and viability: no effect
Xenoreactive antibodies; 250 mg TPC, during the 9 days of TPC administration following explant of the pig heart
  xenoreactive antibody levels: maintained low levels
Xenoreactive antibodies; following cessation of TPC
  XNA levels: rose, but not as dramatically as in the non-TPC-treated control
[2]; 18 days post TPC termination
  IgG ASC values: returned to near normal baseline values
[2]; [3]
  circulating IgG ASC levels decreased: 70-99.7%
  circulating IgM ASC levels decreased: 98.5-100%
[2]; following 6 dosages of TPC over 18 days
  circulating anti-Gal ASC (IgM and IgG) numbers inhibited: 70-99%
[2]; [4]
  circulating IgG ASC, % of baseline values: 27-84%
  circulating IgM ASC, % of baseline values: 1.3-9.8%
